For one assay, the system named is CTGF. Briefly: CTGF protein expression by western blotting in Huh7 cells. To be noted: dose-dependent. Format: cell-based, human. The protocol: Treated Huh7 cells were harvested and lysed in cold RIPA lysis buffer containing […] and phosphatase inhibitors. The protein concentrations were determined using the BCA Protein Assay kit. The prepared protein samples were loaded on and separated by 10% SDS-PAGE gel and then were transferred to PVDF membrane. Blots were blocked for 1 h at RT in blocking buffer and incubated with corresponding primary antibodies: anti-CTGF (ab227180), and anti-GAPDH (ab9485), at 4 ° C overnight. Then the blots were incubated with HRP-conjugated anti-rabbit secondary antibody in blocking buffer for 1.5 h at RT. The membranes were imaged with ChemiDoc MP imaging system.
A general note: In western blotting, separated proteins are transferred to a membrane and probed.

The test system of assay [1] is Huh7 cells. Briefly: Huh7 cell proliferation assay (CCK8). Particulars: for IC50: Homo sapiens. The class given is cell-based, human. On the procedure:
CCK8 assay kit was used to determine antiproliferative activity of synthesized compounds against Huh7 cell line. First, Huh7 cells were seeded into 96-well plates at a density of 3000 cells/well and incubated overnight. Cells were then co-incubated with compounds at 8 concentrations for 72 h. Then, the cell proliferation was determined by the CCK8 kit according to the standard protocol. Experiments were performed in triplicate.

The subject of the next assay is HB tumors. Briefly: Murine hepatoblastoma (HB) model, HDTV injection of S127A-YAP1 and ΔN90-β-catenin. The class given is in vivo, C57BL6 mice. On the procedure:
Using this model, the inhibitory effect of YAP inhibitor compound 22 on HB development was examined. In brief, following HDTV injection, the co-expression of constitutively active S127A-YAP1 and ΔN90 deletion-mutant β-catenin (ΔN90-β-catenin) via Sleeping Beauty-mediated somatic integration led to HB development in mouse livers. Plasmids carrying T3EF1α-YAPS127A (20 μg), pCMV-sleeping beauty transposase (SB, 0.8 μg), and pT3-EF1α-ΔN90-β-catenin (20 μg) were extracted using the Endotoxin-Free Maxiprep kit (Qiagen), diluted in 2 ml 0.9% sodium chloride solution, and injected via hydrodynamic tail vein injection (HDTV) into C57BL6 mice (6 week-old, body weight of 20 g). compound 22 or mock control (twice a week for three months, IP injection) were applied two weeks post the HDTV injection until two days before sacrifice. Low dose group received […] body weight and high dose group received […] body weight.
Tissues harvested from mice were fixed in 4% paraformaldehyde PBS solution for 24 hours, embedded in paraffin, and sectioned (6 μm). Standard staining protocols were performed for IHC using an ABC kit from Vector lab (Vector Laboratories, Inc., CA). The primary antibody was mouse anti-Ki67 antibody (catalogNCL-L-Ki67-MM1, 1:100 dilution) from Leica Biosystems (Deer Park, IL). Stained sections were detected using a microscope (Leica, Germany).
For drug assessment in the murine HB model, plasmids carrying T3EF1α-YAPS127A (20 μg), pCMV-sleeping beauty transposase (SB, 0.8 μg), and pT3-EF1α-ΔN90-β-catenin (20 μg) from Addgene (Watertown, MA) were used. The plasmids were extracted using the Endotoxin-Free Maxiprep kit (Qiagen, Redwood City, CA), diluted in 2 ml 0.9% sodium chloride solution, and injected via hydrodynamic tail vein injection (HDTV) into C57BL6 mice (n=15, 6 week old). Three weeks post the HDTV injection, compound 22 ([…] body weight) or mock control were applied twice a week for total 9 weeks via IP injection. Two days post last drug treatment, mice were euthanized and tumor tissues were subjected to molecular and histological characterizations.

In assay [2] the test system is Huh7 cells. Briefly: Apoptosis by calcein AM and ethidium homodimer-1 staining, Huh7. The class given is cell-based, human.
Assay [3] concerns Huh7 cells. Briefly: Colony formation (clonogenic) assay, Huh7. Format: cell-based. To be noted: Homo sapiens, Huh-7, 48 h, read-out: Colony formation, rate of inhibition, Huh7. The protocol:
The ability of compound 22 to inhibit the proliferation of liver cancer cell lines Huh7 and HepG2 was further assessed using a clonogenic assay.
Huh7 or HepG2 (500 cells/well) were plated into 6 well plates (500 cells per well) and treated with 0 or 5 μM compound 22. Colonies were grown in the absence of soft agar for 2 weeks in a humidified atmosphere of 5% C02 at 37 ° C Crystal violet blue solution (Sigma) was used to stain the colonies for one hour and fixed in methanol followed by counting under a microscope. Triplicate wells were used for each cell line and three independent experiments were performed.

Where two headings read alike, the source gives them in different places.

The values that follow come from patent US20260337177A1, “TEAD CORE INHIBITORS FOR CANCER THERAPEUTICS” (University of Florida Research Foundation, Incorporated, priority 2023, published 2026).

`O=C(CCl)c1c[nH]c2cc(Cl)c(OCc3cccc(C(F)(F)F)c3)cc12` [Compound 22, 2-chloro-1-(6-chloro-5-((3-(trifluoromethyl)benzyl)oxy)-1H-indol-3-yl)ethan-1-one]: the “CTGF protein expression, Huh7” value in the assay on CTGF is “suppression of CTGF protein production”. The IC50 was determined as 0.9 ± 0.3 µM in the assay on Huh7 cells [1] (Huh-7, 72 h, 3 days, CCK8, mean ± SD of three independent experiments, read-out: Cell proliferation assay IC50, Huh7) and 0.9 µM with Huh7 cells [1] (Huh-7, Table 3 column is in μM, read-out: Huh7 cell growth inhibition / proliferation IC50). Moreover, the “Activity ratio, 3-CF3 derivative compound 22 vs para-analogue compound 23” value with Huh7 cells [1] (more active than compound 23, Huh7) is given as 16 fold. Further, the “HB tumors, occurrence and size” value in the assay on HB tumors (25 mg/kg body weight, twice a week for 9 weeks, IP) is “notable reduction in both the occurrence and size of HB tumors”. Further, the “Number of proliferating cells (IHC)” value in the assay on HB tumors (25 mg/kg, Cyclin D1 / Ki67 (FIG. 23B)) was “decreased number of proliferating cells”. Also, in the assay with HB tumors (real time qRT-PCR, 25 mg/kg), the “Ccnd1, CTGF, Cyr61, Afp, and Gpc3 mRNAs in livers” value is recorded as “lower levels”. In addition, in the assay on HB tumors (western blotting, 25 mg/kg), the “CTGF and Cyr61 proteins in livers” value was “decreased CTGF and Cyr61”. The Huh7 cell apoptosis entry in the assay on Huh7 cells [2] is listed as “promotes Huh7 cell apoptosis”. For the same compound, the inhibition at 5 µM in the assay with Huh7 cells [3] is 62.5%.

One may read the inhibition as the change of the read-out against control, counted positive when it falls.
